Like-named read-outs stand apart in the source and are kept apart here.
What was measured:
[1] = biological target: Lpa1 (Homo sapiens, UniProt Q92633); experiment: Lpa1 activity of OGM analogs (Table 5); format: cell-based
Procedure: GPCR profiling assays were performed by Millipore (St. Louis, MO) using in cells expressing Gα15, a promiscuous G protein that enhances GPCR coupling to downstream Ca2+ signaling pathways. KinomeScan was conducted by DiscoveRx (Fremont, CA). Since GPCRs represent >30% of targets for FDA-approved small molecules and are known to modulate cell migration, activity against 158 GPCRs was assessed based on their chemical structures. GPCRs (158) were tested for agonist and antagonist activity at 10 μM. […] Chemical segregation analysis of zebrafish phenotype was conducted to further identify the inhibitory activity responsible for the zebrafish phenotype. […] The identities of the R groups in Formula A are shown below in Table 5.

[2] = system: zebrafish embryo; experiment: Zebrafish embryo phenotype; format: in vivo
Procedure: A chemical screen for small molecules that perturb embryonic development (dorsoventral axis) in zebrafish was performed as previously described (see Chen et al., 2009; Hao et al., 2013; Williams et al., 2015; Yu et al., 2008)). Briefly, pairs of WT zebrafish were mated, and fertilized eggs were arrayed in 96-well microtiter plates (5 embryos/well) containing […] E3 water. At 4 hours post fertilization (pf), a small molecule library from Vanderbilt High Throughput Screening Facility was added to each well to a final concentration of 10 μM. Embryos were incubated at 28.5 C until 24 and 48 hours pf, when they were examined for gross morphologic changes indicative of reproducible embryonic defects (dorsalization of the embryonic axis). A total of 30,000 compounds were screened. To discover novel small molecule modulators of embryonic development an unbiased screen of ˜30,000 small molecules was conducted, in which the compounds were assayed for their ability to induce phenotypic changes in the morphology of zebrafish. Further information on these assays can be found in Hao et al., 2013 and Williams et al., 2015. […] This compound was identified based on the phenotype of aberrant pigmentation. Compare FIG. 2B and FIG. 2C, which show a dorsal view of a representative DMSO vehicle control-treated zebrafish embryo at 48 hours pf and a dorsal view of a representative OGM1 (10 uM)-treated zebrafish embryo at 48 hours pf. […] Since GPCRs represent >30% of targets for FDA-approved small molecules and are known to modulate cell migration, activity against 158 GPCRs was assessed based on their chemical structures. GPCRs (158) were tested for agonist and antagonist activity at 10 μM. […] Chemical segregation analysis of zebrafish phenotype was conducted to further identify the inhibitory activity responsible for the zebrafish phenotype. […] The identities of the R groups in Formula A are shown below in Table 5.

[3] = biological target: T1, GPR68/OGR1 (Homo sapiens, UniProt Q15743); experiment: CHEM1-OGR1 cells Fluo-8 calcium assay, acidified media pH 6.4; format: cell-based
T1 construct: host or cells: Chem-1 (CHEM1-OGR1) cells
T1 sequence (Q15743 whole entry): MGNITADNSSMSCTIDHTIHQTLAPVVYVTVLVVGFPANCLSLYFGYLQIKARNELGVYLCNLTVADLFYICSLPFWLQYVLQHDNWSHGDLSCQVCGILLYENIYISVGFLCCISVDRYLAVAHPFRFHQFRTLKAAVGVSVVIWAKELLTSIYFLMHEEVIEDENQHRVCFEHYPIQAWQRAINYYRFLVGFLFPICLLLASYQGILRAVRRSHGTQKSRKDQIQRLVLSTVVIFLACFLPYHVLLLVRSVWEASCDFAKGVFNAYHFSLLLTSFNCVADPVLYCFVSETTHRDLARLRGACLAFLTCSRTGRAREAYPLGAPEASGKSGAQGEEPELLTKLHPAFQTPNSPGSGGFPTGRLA
Procedure: Briefly, the methods were: On the day before the assay 20,000 cells per well of CHEM1-OGR1 cells were plated in 10% DMEM containing 10% FBS and 1% Pen/Strep into a 96 well plate. After 24 hours media was removed and cells were stained with 80 μL Fluo-8 calcium indicator dye according to manufacturer's protocol. After staining cells were treated with 20 uL of 4× concentration of test compounds. Using kinetic imaging in the Lionheart HCS fluorescence intensity was continuously measure at 10 frames per second, for 5 seconds before 100 μL of acidified media was added to the well resulting in a pH of 6.4. A ratio of fluorescence intensities prior to addition and at peak were calculated and averaged. The resulting data were platted and using a 4 parameter logistic regression EC50 (the concentration causing 50% effective inhibition) for each test compound was determined.

[4] = system: LPS-induced ALI; experiment: LPS-induced acute lung injury; format: in vivo, mice
Source text: PMN (polymorphonuclear neutrophils).

[5] = concentrations up to 200× the IC50
[6] = concentration causing 50% effective inhibition of calcium response to pH 6.4, read-out: EC50

Sequence of Lpa1 (Q92633 whole entry, species assumed): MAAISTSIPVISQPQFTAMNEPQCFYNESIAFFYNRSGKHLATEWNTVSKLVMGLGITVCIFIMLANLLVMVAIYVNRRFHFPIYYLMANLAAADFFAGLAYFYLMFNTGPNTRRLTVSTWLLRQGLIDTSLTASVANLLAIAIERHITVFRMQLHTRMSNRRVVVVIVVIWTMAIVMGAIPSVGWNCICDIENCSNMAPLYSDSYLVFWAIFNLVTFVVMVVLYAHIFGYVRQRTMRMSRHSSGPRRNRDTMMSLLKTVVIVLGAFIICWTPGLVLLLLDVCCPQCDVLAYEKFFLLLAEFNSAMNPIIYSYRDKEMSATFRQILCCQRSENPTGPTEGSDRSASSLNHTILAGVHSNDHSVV

Row | SMILES | EC50 [3, 6] | other results
1 | Cc1noc(-c2ccc(CSCCC(=O)O)cc2)c1NC(=O)OC(C)c1ccccc1Cl (stereo not drawn) [LPAi] |  | IC50 [1]: 250 nM; induction of zebrafish phenotype ([2]; concentrations up to 50 μM, ˜200× its IC50): failed to induce the phenotype; induction of zebrafish phenotype [2, 5]: failed to induce a noticeable phenotype
2 | Cc1ccc2c(c1)C1(NN=C(c3ccccc3)S1)C(=O)N2 (stereo not drawn) [OGM3] |  | EC50 ([3]; Table 5, read-out: GPR68): 760 nM; IC50 [1]: 6400 nM
3 | CCc1ccc2c(c1)C1(NN=C(c3ccccc3O)S1)C(=O)N2 (stereo not drawn) [OGM4] |  | EC50 ([3]; Table 5, read-out: GPR68): 3400 nM; IC50 [1]: 1400 nM
4 | CN1C(=O)C2(NN=C(c3cccc4ccccc34)S2)c2ccccc21 (stereo not drawn) [OGM6] |  | EC50 ([3]; Table 5, read-out: GPR68): 1500 nM
5 | O=C1Nc2ccc(Cl)cc2C12NN=C(c1ccccc1)S2 (stereo not drawn) [OGM7] | 1170 nM | 
6 | O=C1Nc2ccccc2C12NN=C(c1ccccc1)S2 (stereo not drawn) [OGM8] | 2740 nM | 
7 | O=C1Nc2ccccc2C12NN=C(c1ccc(Cl)cc1)S2 (stereo not drawn) [OGM13] | < 826 nM | 
8 | Cc1ccc(C2=NNC3(S2)C(=O)Nc2ccccc23)cc1 (stereo not drawn) [OGM15] | 1060 nM | 
9 | O=C1Nc2ccc(Cl)cc2C12NN=C(c1ccc(Cl)cc1)S2 (stereo not drawn) [OGM19] | 2320 nM | 
10 | O=C1Nc2ccc(Cl)cc2C12NN=C(c1cccc3ccccc13)S2 (stereo not drawn) [OGM23] | 500 nM | 
11 | COc1ccc(C2=NNC3(S2)C(=O)N(CC=C(C)C)c2ccc(Cl)cc23)cc1 (stereo not drawn) [OGM29] | > 10000 nM | 
12 | COc1ccc(C2=NNC3(S2)C(=O)N(CC=C(C)C)c2ccccc23)cc1 (stereo not drawn) [OGM30] | > 10000 nM | 
13 | CC(C)=CCN1C(=O)C2(NN=C(c3ccc(Cl)cc3)S2)c2cc(Cl)ccc21 (stereo not drawn) [OGM31] | 9080 nM | 
14 | CC(C)=CCN1C(=O)C2(NN=C(c3cccc4ccccc34)S2)c2cc(Cl)ccc21 (stereo not drawn) [OGM32] | > 10000 nM | 
15 | CC(C)=CCN1C(=O)C2(NN=C(c3cccc4ccccc34)S2)c2ccccc21 (stereo not drawn) [OGM33] | > 10000 nM | 
16 | CN1C(=O)C2(NN=C(c3ccccc3)S2)c2cc(Br)ccc21 (stereo not drawn) [OGM36] | 5600 nM | 

Row | SMILES | EC50 [3, 6] | other results
17 | COC(=O)c1ccc2c(c1)C1(NN=C(c3ccccc3)S1)C(=O)N2 (stereo not drawn) [OGM41] | 2260 nM | 
18 | O=C(O)c1ccc2c(c1)C1(NN=C(c3ccccc3)S1)C(=O)N2 (stereo not drawn) [OGM42] | 1880 nM | 
19 | COC(=O)c1ccc2c(c1)C1(NN=C(c3cccc4cccnc34)S1)C(=O)N2 (stereo not drawn) [OGM44] | 4050 nM | 
20 | COC(=O)c1ccc2c(c1)C1(NN=C(c3cccnc3)S1)C(=O)N2 (stereo not drawn) [OGM47] | > 10000 nM | 
21 | CCc1ccc2c(c1)C1(NN=C(c3cccnc3)S1)C(=O)N2 (stereo not drawn) [OGM48] | > 10000 nM | 
22 | CCc1ccc2c(c1)C1(NN=C(c3ccnc(OC)c3)S1)C(=O)N2 (stereo not drawn) [OGM49, 5-ethyl-5′-(2-methoxypyridin-4-yl)-1,2-dihydro-3′H-spiro[indole-3,2′-[1,3,4]thiadiazol]-2-one: 2,2,2-trifluoroacetic acid] | 1420 nM | 
23 | COc1ccc2c(c1)NC(=O)C21NN=C(c2ccnc(OC)c2)S1 (stereo not drawn) [OGM51] | 3570 nM | 
24 | NS(=O)(=O)c1ccc2c(c1)C1(NN=C(c3ccccc3)S1)C(=O)N2 (stereo not drawn) [OGM52] | 3730 nM | 
25 | O=C(O)c1ccc2c(c1)C1(NN=C(c3ccc4ncccc4c3)S1)C(=O)N2 (stereo not drawn) [OGM54] | 4770 nM | 
26 | O=C1Nc2ccc(F)cc2C12NN=C(c1cccnc1)S2 (stereo not drawn) [OGM56] | 3580 nM | 
27 | CCc1ccc2c(c1)C1(NN=C(c3cccc4cccnc34)S1)C(=O)N2 (stereo not drawn) [OGM58] | 5480 nM | 
28 | O=C(O)c1ccc2c(c1)C1(NN=C(c3cccnc3)S1)C(=O)N2 (stereo not drawn) [OGM61] | 2190 nM | 
29 | CCc1ccc2c(c1)C1(NN=C(c3ccc(C(F)(F)F)nc3)S1)C(=O)N2 (stereo not drawn) [OGM71] | 10500 nM | 
30 | O=C1Nc2ccc(F)cc2C12NN=C(c1ccc(C(F)(F)F)nc1)S2 (stereo not drawn) [OGM76] | 5760 nM | 
31 | COc1cc(Br)c(S(=O)(=O)Nc2ccc(Cl)c(O[C@@H]3CCN(C)C3)c2)cc1OC [UT2i] |  | induction of zebrafish phenotype [2, 5]: failed to induce a noticeable phenotype

Now from value to compound, other results behind:

Row | EC50 [3, 6] | SMILES | other results
32 | 2840 nM | O=C1Nc2ccc(F)cc2C12NN=C(c1ccccc1)S2 (stereo not drawn) [OGM9] | 
33 | 1440 nM | COc1ccc(C2=NNC3(S2)C(=O)Nc2ccccc23)cc1 (stereo not drawn) [OGM10] | 
34 | 4390 nM | COc1ccc(C2=NNC3(S2)C(=O)Nc2ccc(Cl)cc23)cc1 (stereo not drawn) [OGM11] | 
35 | 756 nM | COc1ccc(C2=NNC3(S2)C(=O)Nc2ccc(F)cc23)cc1 (stereo not drawn) [OGM12] | 
36 | 1830 nM | O=C1Nc2ccc(F)cc2C12NN=C(c1ccc(Cl)cc1)S2 (stereo not drawn) [OGM14] | 
37 | 785 nM | Cc1ccc(C2=NNC3(S2)C(=O)Nc2ccc(Cl)cc23)cc1 (stereo not drawn) [OGM16] | 
38 | 262 nM | COc1ccc(C2=NNC3(S2)C(=O)Nc2ccc(OC)cc23)cc1 (stereo not drawn) [OGM17] | inflammatory cell infiltrates in BAL ([4]; LPS 0.7 mg/kg intratracheally, compounds intraperitoneally): reduced inflammatory cell infiltrates in BAL; reversal of markers of ALI, comparison with OGM2 ([4]; mouse, in vivo): much more potent in reversing the markers of ALI due to LPS in vivo
39 | 769 nM | Cc1ccc(C2=NNC3(S2)C(=O)Nc2ccc(F)cc23)cc1 (stereo not drawn) [OGM18] | 
40 | 4000 nM | O=C1Nc2ccccc2C12NN=C(c1ccc(F)cc1)S2 (stereo not drawn) [OGM20] | 
41 | 722 nM | O=C1Nc2ccc(Cl)cc2C12NN=C(c1ccc(F)cc1)S2 (stereo not drawn) [OGM21] | 
42 | 669 nM | COc1ccc2c(c1)C1(NN=C(c3ccc(Cl)cc3)S1)C(=O)N2 (stereo not drawn) [OGM22] | 
43 | 90 nM | COc1ccc2cc(C3=NNC4(S3)C(=O)Nc3ccc(Cl)cc34)ccc2c1 (stereo not drawn) [OGM24] | 
44 | 655 nM | COc1ccc2cc(C3=NNC4(S3)C(=O)Nc3ccc(F)cc34)ccc2c1 (stereo not drawn) [OGM26] | 
45 | > 10000 nM | CCc1ccc2c(c1)C1(NN=C(c3ccc4cc(OC)ccc4c3)S1)C(=O)N2 (stereo not drawn) [OGM27] | 
46 | > 10000 nM | CCc1ccc2c(c1)C1(NN=C(c3ccc(OC)cc3)S1)C(=O)N2 (stereo not drawn) [OGM28] | 
47 | > 10000 nM | COc1ccc2cc(C3=NNC4(S3)C(=O)N(CC=C(C)C)c3ccccc34)ccc2c1 (stereo not drawn) [OGM34] | 
48 | > 10000 nM | COc1ccc2cc(C3=NNC4(S3)C(=O)N(CC=C(C)C)c3ccc(Cl)cc34)ccc2c1 (stereo not drawn) [OGM35] | 
49 | 3690 nM | COC(=O)c1ccc2c(c1)C1(NN=C(c3ccc4ncccc4c3)S1)C(=O)N2 (stereo not drawn) [OGM37] | 
50 | 2620 nM | COc1ccc2c(c1)C1(NN=C(c3cccc4cccnc34)S1)C(=O)N2 (stereo not drawn) [OGM38] | 
51 | 1170 nM | COc1ccc2c(c1)NC(=O)C21NN=C(c2ccc3ncccc3c2)S1 (stereo not drawn) [OGM39] | 
52 | 1190 nM | CCc1ccc2c(c1)C1(NN=C(c3ccc4ncccc4c3)S1)C(=O)N2 (stereo not drawn) [OGM40] | 
53 | > 10000 nM | COc1ccc2c(c1)C1(NN=C(c3ccc4ncccc4c3)S1)C(=O)N2 (stereo not drawn) [OGM43] | 
54 | 1470 nM | O=C1Nc2ccc(F)cc2C12NN=C(c1cccc3cccnc13)S2 (stereo not drawn) [OGM46] | 
55 | 3930 nM | NS(=O)(=O)c1ccc2c(c1)C1(NN=C(c3ccc4ncccc4c3)S1)C(=O)N2 (stereo not drawn) [OGM55] | 
56 | 832 nM | COc1ccc2c(c1)NC(=O)C21NN=C(c2ccncc2)S1 (stereo not drawn) [OGM59] | 
57 | 3520 nM | COc1ccc2c(c1)C1(NN=C(c3ccnc(OC)c3)S1)C(=O)N2 (stereo not drawn) [OGM63] | 
58 | > 10000 nM | COc1ccc2c(c1)C1(NN=C(c3ccc(Br)cc3)S1)C(=O)N2 (stereo not drawn) [OGM73] | 
59 | 296 nM | O=C1Nc2ccc(F)cc2C12NN=C(c1ccc(Br)cc1)S2 (stereo not drawn) [OGM74] | 
60 | 1590 nM | COc1ccc2c(c1)C1(NN=C(c3ccc(C(F)(F)F)nc3)S1)C(=O)N2 (stereo not drawn) [OGM75] | 

Reference: patent publication US20240327364A1, “THERAPEUTIC TARGETING OF GPR68 TO INDUCE FERROPTOSIS” (University Of Maryland, Baltimore, priority 2023, published 2024)
